Assay results reported in paper PMC10184313, “Inhibition of Thiamine Diphosphate-Dependent Enzymes by Triazole-Based Thiamine Analogues” (ACS Medicinal Chemistry Letters, 2023).
Like-named read-outs stand apart in the source and are kept apart here.

How the values were obtained:
S. cerevisiae PDC = biological target: T1, S. cerevisiae PDC (Saccharomyces cerevisiae, UniProt P06169); experiment: S. cerevisiae PDC inhibitory activity assay (DCPIP reduction); format: biochemical; details: compounds insufficiently soluble were excluded; for inhibition at 1500 µM: read-out: Inhibition (%) Yeast PDC
T1 construct: purchased Sigma
T1 sequence (P06169 2-563 limits assumed): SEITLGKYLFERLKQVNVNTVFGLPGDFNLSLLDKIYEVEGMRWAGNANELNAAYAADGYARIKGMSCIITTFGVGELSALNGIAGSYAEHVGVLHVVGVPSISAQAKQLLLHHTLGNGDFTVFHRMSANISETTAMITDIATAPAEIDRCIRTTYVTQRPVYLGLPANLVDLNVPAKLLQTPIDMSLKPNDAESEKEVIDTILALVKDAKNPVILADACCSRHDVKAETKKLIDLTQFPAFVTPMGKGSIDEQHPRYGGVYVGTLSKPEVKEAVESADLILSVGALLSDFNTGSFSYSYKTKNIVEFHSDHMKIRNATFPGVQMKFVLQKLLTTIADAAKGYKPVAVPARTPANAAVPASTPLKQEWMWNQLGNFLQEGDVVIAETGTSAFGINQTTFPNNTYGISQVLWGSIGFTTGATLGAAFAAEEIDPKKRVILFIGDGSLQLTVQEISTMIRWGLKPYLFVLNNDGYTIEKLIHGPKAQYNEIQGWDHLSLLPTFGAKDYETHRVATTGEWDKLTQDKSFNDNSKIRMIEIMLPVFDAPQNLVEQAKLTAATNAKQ
Method: S. cerevisiae PDC inhibitory activity assay. S. cerevisiae PDC was purchased from Sigma. Its activity was determined by monitoring DCPIP reduction at 600 nm using a microplate reader (CLARIOstar) and conducted as described 1,2 with some modifications. The percentage inhibition of compounds was assayed at a final concentration of 1500 µM. The reaction buffer (50 mM KH 2PO4 and 1 mM MgCl 2, pH 7) contained 300 µM ThDP (or 750 µM in the competition assay), 0.27 mM DCPIP, and 0.15 mg/ml S. cerevisiae PDC. The reaction mixture was preincubated at 37 °C for 60 min, then reaction was initiated by adding pyruvate to a final concentration of 70 mM. Specific activity was calculated using the molar extinction coefficient of DCPIP, 21 mM -1 cm -1.3 […]

A. viridans PO = biological target: T2, A. viridans PO (Aerococcus viridans, UniProt A9X9K8); experiment: A. viridans PO inhibitory activity assay (quinoneimine dye); format: biochemical
T2 sequence (A9X9K8 1-592): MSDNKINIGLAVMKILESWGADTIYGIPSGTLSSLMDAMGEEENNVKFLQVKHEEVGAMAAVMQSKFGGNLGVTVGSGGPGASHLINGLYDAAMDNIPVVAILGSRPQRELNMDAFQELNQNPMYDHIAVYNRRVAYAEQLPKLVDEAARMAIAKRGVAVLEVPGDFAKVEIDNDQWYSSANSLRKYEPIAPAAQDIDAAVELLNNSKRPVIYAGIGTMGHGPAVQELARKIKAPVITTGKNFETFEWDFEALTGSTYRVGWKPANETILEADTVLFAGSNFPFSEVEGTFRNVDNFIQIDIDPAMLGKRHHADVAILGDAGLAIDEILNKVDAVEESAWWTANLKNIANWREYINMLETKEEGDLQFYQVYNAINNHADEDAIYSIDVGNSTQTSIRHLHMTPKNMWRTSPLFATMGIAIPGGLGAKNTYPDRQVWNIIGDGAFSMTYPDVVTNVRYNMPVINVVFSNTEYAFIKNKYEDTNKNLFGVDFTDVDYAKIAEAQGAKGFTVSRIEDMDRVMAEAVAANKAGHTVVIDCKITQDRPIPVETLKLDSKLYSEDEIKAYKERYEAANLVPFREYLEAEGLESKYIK
Method: A. viridans PO inhibitory activity assay. A. viridans PO and horseradish peroxidase were purchased from Sigma. A. viridans PO activity was determined by monitoring appearance of quinoneimine dye at 550 nm using a microplate reader (CLARIOstar) and conducted as described 1 with some modifications.
The percentage inhibition of compounds against A. viridans PO was assayed at a final concentration of 250 µM. The reaction buffer (50 mM KH 2PO4 and 10 mM MgCl 2, pH 5.9) contained 50 µM ThDP (or 125 µM in the competition assay), 10 µM flavin adenine dinucleotide (FAD), 0.15% 4-Aminoantipyrine, 0.3% N-Ethyl-N-(2-hydroxy-3-sulfopropyl)-m-toluidine (EHSPT), 50 µg/mL horseradish peroxidase and 0.35 U/mL A. viridans PO. The reaction mixture was preincubated at 37 °C for 30 min, then reaction was initiated by adding pyruvate to a final concentration of 50 mM. To determine the IC 50, inhibitor concentration was varied (2-1000 µM) with ThDP concentration at 50 µM. 1 unit of PO activity is defined as 1 μmol of hydrogen peroxide produced per minute. The enzyme IC 50 values were calculated as described for the PDHc E1 assay. […]

in vitro = format: cell-based, human; details: human
Method: Cell-based assays (Results)
Anti-plasmodial activity assay. This study used human malaria parasite P. falciparum strain 3D7 (chloroquine-sensitive) and the same strain expressing an extra copy of TPK with a GFP-tag ( PfTPK-GFP) generated as previously described. 9 The intraerythrocytic stage of the parasites were maintained essentially as previously described. 10 Compounds were tested at concentrations up to a highest final […]
were prepared in dimethyl sulfoxide (DMSO) followed by dilution in RPMI 1640 medium in the absence of thiamine or in the presence of 2.97 µM (or 297 µM) thiamine. The final concentration of DMSO that the parasites were exposed to never exceeded 0.05%. Two-fold serial dilutions were then performed, with each concentration tested in triplicate. The assay was performed as described 11 with some modifications. Experiments were initiated with parasites in the ring-stage, a parasitemia level of 0.5% and a haematocrit of 2%. Chloroquine (0.5 µM) was used as the positive control ( i.e. complete inhibition of parasite proliferation), and parasites maintained in the absence of any inhibitor represented 100% parasite proliferation. The final volume in each well was 200 µL. Plates were incubated at 37 °C, under an atmosphere of 96% nitrogen, 3% carbon dioxide and 1% oxygen. Parasite proliferation was measured by performing SYBR-Safe assay. 12 The concentration at which the compound suppresses […]
Excel and analysed by non-linear regression plot using GraphPad Prism. The data were averaged from three independent experiments.
Cytotoxicity assay. This study used HFF cells (human foreskin fibroblasts) as described 13 with some modifications. The HFF cells were seeded in 96-well plates at a density of about 13 x 10^4 cells/mL.
Plates were incubated at 37 °C in a humidified 5% carbon dioxide incubator for 96 h. A sample of the supernatant (150 µL) was then carefully aspirated from each well and discarded. The plates were then stored at -80 °C. SYBR- Safe assay was used. The plates were thawed, SYBR-Safe lysis solution (150 µL) was added to each well and mixed via pipetting to ensure the HFF cells were detached from the plate and lysed. The plates were then processed as described for the anti-plasmodial assay.

[1] = [Compound] = 1.5 mM, [ThDP] = 0.3 mM
[2] = increased ThDP: [Compound] = 1500 μM, [ThDP] = 750 μM
[3] = [Compound] = 250 μM, [ThDP] = 50 μM
[4] = increased ThDP: [Compound] = 250 μM, [ThDP] = 125 μM

| SMILES | Inhibition (%) Yeast PDC (S. cerevisiae PDC; [1]) | Inhibition (%) Yeast PDC (S. cerevisiae PDC; [2]) | Inhibition (%) PO (A. viridans PO; [3]) | Inhibition (%) PO (A. viridans PO; [4]) | IC50 at 96 h (in vitro) | inhibition at 1500 µM (S. cerevisiae PDC; [1]) | inhibition at 1500 µM (S. cerevisiae PDC; [2]) | IC50 (A. viridans PO; [ThDP] 50 μM) | Ki (A. viridans PO; determined according to the KM for ThDP) |
| --- | --- | --- | --- | --- | --- | --- | --- | --- | --- |
| COc1ccc(-c2cn(CCCc3cn(Cc4cnc(C)nc4N)nn3)nn2)cc1 [Compound 17b] | Insoluble | Insoluble | < 20% | <20% | 90 ± 5 µM |  |  |  |  |
| Cc1ncc(Cn2cc(CCCn3cc(-c4ccc(F)cc4)nn3)nn2)c(N)n1 [Compound 16b] | Insoluble | Insoluble | < 20% | <20% | > 200 µM |  |  |  |  |
| COc1ccc(-c2cn(CCCCc3cn(Cc4cnc(C)nc4N)nn3)nn2)cc1 [Compound 17c] | Insoluble | Insoluble | < 20% | <20% | 46 ± 7 µM |  |  |  |  |
| Cc1ncc(Cn2cc(CCCCn3cc(-c4ccc(F)cc4)nn3)nn2)c(N)n1 [Compound 16c] | Insoluble | Insoluble | < 20% | <20% | 48 ± 5 µM |  |  |  |  |
| Cc1ncc(Cn2cc(CCCC(=O)NO)nn2)c(N)n1 [Compound 24b] |  |  | 35 ± 5% | 27 ± 4% | 15 ± 3 µM | 65 ± 2% | 42 ± 4% | 202 ± 19 µM | 20.2 µM |
